Results from patent US5278308A, “Iodine derivatives of tetrabenazine” (The Trustees of The University of Pennsylvania, priority 1992, dated 1994).
Read-outs that look alike come from different tables or passages of the source. Blank lines part the entries; values can stand above or below the compound they belong to.

How the values were obtained:
[1] = test system: monoamine uptake-storage mechanism of amine granules in the synapse; settings: in vivo; cited from earlier work
[2] = up to 300 mg daily, several trials; cited from earlier work
[3] = Stability of radiolabeled compound at room temperature; assay type: physicochemical
Description: The […] labeled iodovinYl-TBZ derivative ([^123 I]-TBZ, 2b) was prepared by an iododestannylation reaction. Aqueous hydrogen peroxide (1 mg/mL EtOH), 200 uL of 0.1 N HCl and 5 mCi [^123 I]sodium iodide were combined in a sealed vial. The reaction was allowed to proceed at room temperature for 20 min, after which it was terminated by addition of 0.1 mL sodium bisulfite (300 mg/ml). The reaction was then neutralized with NaHCO3 and extracted with ethyl acetate (3×1 mL). The combined organic layers were dried under nitrogen and the desired product was purified through HPLC on a reverse phase column (PRP-1, Hamilton) eluting with a isocratic solvent of 90% acetonitrile-10% buffer (5 mM 3,3'-dimethylglutaric acid, pH 7.0) and a flow rate of 1 mL/min. The radiochemical purity was analyzed by the above chromatographic system and the purified [^123 I] product (yield 50%, purity >98%) was obtained for animal experiments. The radiolabeled [^123 I]I-TBZ is stable at room temperature for up to 15 h.

[4] = Biodistribution in rats (iv injection); assay type: in vivo; settings: rat; for Blood uptake (blood assumed 7% of body weight) / Heart uptake / Kidney uptake / Liver uptake / Lung uptake / Muscle uptake (muscle assumed 40% of body weight) / Skin uptake / Spleen uptake / Thyroid uptake / Brain uptake: iv
Description: While under ether anesthesia, each rat was injected in the femoral vein with 0.2 mL saline solution containing [^123 I]I-TBZ (1-5uCi) either racemic mixture, peak-A or peak-B. The rats were sacrificed at various time points postinjection by cardiac excision. The tissues were weighed and the radioactivity was measured with a Canberra gamma counter (Model 5000). The percent dose per organ was calculated by a comparison of the tissue counts to suitably diluted aliquots of the injected material. Total activities of blood and muscle were calculated assuming that they were 7% and 40% of total body weight, respectively Results are presented in Tables 3, 4A and 4B.

[5] = Regional brain distribution in rats (dissection, iv injection); assay type: in vivo; settings: for Regional brain uptake, cerebellum / Regional brain uptake, cortex / Regional brain uptake, hippocampus / Regional brain uptake, striatum / tissue uptake at 2 min / tissue uptake at 0.5 h / tissue uptake at 4 h / tissue uptake at 6 h / tissue uptake at 16 h: rat; for tissue uptake at 0.5 h: 30 min; for tissue uptake at 4 h: 240 min; for tissue uptake at 6 h: 2 rats only
Description: Regional brain distribution of [^123 I]I-TBZ (with either a racemic mixture, peak A or B) in rats was obtained after an iv injection. By dissecting, weighing and counting samples from different brain regions (cortex, striatum, hippocampus and cerebellum), % dose/gram of the samples was calculated by comparing the sample counts with the counts of the diluted initial dose. The ratio of uptake in each region was obtained by dividing % dose/gram of each region with that of the cerebellum. The effect of tetrahydrobenazine on the uptake of peak A or peak B was investigated by pretreating the rats with the TBZ 3 mg/rat at 3 min before iv injection of [^123 I]I-TBZ. At 20 min. post injection the rats were dissected and the regional brain dissection was carried out as above.

[6] = test system: monoamine transporter of chromaffin granules and CNS synaptic vesicles; settings: cited from earlier work
[7] = cerebellum, read-out: Regional brain uptake, cerebellum
[8] = cortex, read-out: Regional brain uptake, cortex
[9] = hippocampus, read-out: Regional brain uptake, hippocampus
[10] = striatum, read-out: Regional brain uptake, striatum

SMILES: COc1cc2c(cc1OC)C1CC(=O)C(CC(C)C)CN1CC2 (stereo not shown) [TBZ, 3-(2-methylpropyl)-9,10-dimethoxy-1,3,4,6,7,11b-hexahydro-2H-benzo[a]quinolizin-2-one]
Duration of depletion of catecholamines and serotonin in the brain (in words) [1]: shorter duration | Irreversible damage to storage mechanism / neurons (in words) [1]: do not cause irreversible damage to neurons | Effect on tardive dyskinesia in patients (in words) [2]: improved tardive dyskinesia

SMILES: COC(=O)[C@H]1[C@H]2C[C@@H]3c4[nH]c5cc(OC)ccc5c4CCN3C[C@H]2C[C@@H](OC(=O)c2cc(OC)c(OC)c(OC)c2)[C@@H]1OC [Reserpine]
Irreversible damage to storage mechanism / neurons (in words) [1]: the storage mechanism is irreversibly damaged

Stable at room temperature for up to [3]: up to 15 h | Blood uptake (blood assumed 7% of body weight) ([4]; 2 min): 5.99 ± 2.54 % Dose/organ | Heart uptake ([4]; 2 min): 1.33 ± 0.19 % Dose/organ | Kidney uptake ([4]; 2 min): 4.18 ± 0.46 % Dose/organ | Liver uptake ([4]; 2 min): 11.1 ± 1.22 % Dose/organ | Lung uptake ([4]; 2 min): 4.44 ± 1.44 % Dose/organ | Muscle uptake (muscle assumed 40% of body weight) ([4]; 2 min): 6.93 ± 0.12 % Dose/organ | Skin uptake ([4]; 2 min): 4.08 ± 2.32 % Dose/organ | Spleen uptake ([4]; 2 min): 0.28 ± 0.04 % Dose/organ | Thyroid uptake ([4]; 2 min): 0.06 ± 0.02 % Dose/organ | Brain uptake ([4]; 2 min, listed as [^123 I]I-TBZ (2b)): 0.92 % Dose/organ | Brain uptake ([4]; 2 min, listed as [^123 I]I-TBZ racemic mixture): 0.92 ± 0.13 % Dose/organ | Blood uptake (blood assumed 7% of body weight) ([4]; 30 min): 1.84 ± 0.17 % Dose/organ | Heart uptake ([4]; 30 min): 0.34 ± 0.02 % Dose/organ | Kidney uptake ([4]; 30 min): 1.55 ± 0.21 % Dose/organ | Liver uptake ([4]; 30 min): 9.75 ± 1.83 % Dose/organ | Lung uptake ([4]; 30 min): 1.02 ± 0.14 % Dose/organ | Muscle uptake (muscle assumed 40% of body weight) ([4]; 30 min): 20.18 ± 2.19 % Dose/organ | Skin uptake ([4]; 30 min): 11.53 ± 2.54 % Dose/organ | Spleen uptake ([4]; 30 min): 0.29 ± 0.03 % Dose/organ | Thyroid uptake ([4]; 30 min): 0.03 ± 0.005 % Dose/organ | Brain uptake ([4]; 30 min, listed as [^123 I]I-TBZ (2b)): 0.36 % Dose/organ | Brain uptake ([4]; 30 min, listed as [^123 I]I-TBZ racemic mixture): 0.36 ± 0.05 % Dose/organ | Blood uptake (blood assumed 7% of body weight) ([4]; 60 min): 2.46 ± 0.56 % Dose/organ | Brain uptake ([4]; 60 min): 0.28 ± 0.05 % Dose/organ | Heart uptake ([4]; 60 min): 0.35 ± 0.06 % Dose/organ | Kidney uptake ([4]; 60 min): 1.47 ± 0.22 % Dose/organ | Liver uptake ([4]; 60 min): 8.57 ± 0.41 % Dose/organ | Lung uptake ([4]; 60 min): 1.47 ± 0.64 % Dose/organ | Muscle uptake (muscle assumed 40% of body weight) ([4]; 60 min): 14.9 ± 1.77 % Dose/organ | Skin uptake ([4]; 60 min): 6.39 ± 2.37 % Dose/organ | Spleen uptake ([4]; 60 min): 0.37 ± 0.10 % Dose/organ | Thyroid uptake ([4]; 60 min): 0.05 ± 0.002 % Dose/organ | Blood uptake (blood assumed 7% of body weight) ([4]; 120 min): 2.16 ± 0.21 % Dose/organ | Brain uptake ([4]; 120 min): 0.16 ± 0.03 % Dose/organ | Heart uptake ([4]; 120 min): 0.24 ± 0.06 % Dose/organ | Kidney uptake ([4]; 120 min): 0.97 ± 0.13 % Dose/organ | Liver uptake ([4]; 120 min): 6.71 ± 0.84 % Dose/organ | Lung uptake ([4]; 120 min): 0.78 ± 0.43 % Dose/organ | Muscle uptake (muscle assumed 40% of body weight) ([4]; 120 min): 15.4 ± 4.17 % Dose/organ | Skin uptake ([4]; 120 min): 7.05 ± 1.52 % Dose/organ | Spleen uptake ([4]; 120 min): 0.20 ± 0.06 % Dose/organ | Thyroid uptake ([4]; 120 min): 0.08 ± 0.05 % Dose/organ | Blood uptake (blood assumed 7% of body weight) ([4]; 240 min): 1.82 ± 0.26 % Dose/organ | Brain uptake ([4]; 240 min): 0.13 ± 0.04 % Dose/organ | Heart uptake ([4]; 240 min): 0.18 ± 0.03 % Dose/organ | Kidney uptake ([4]; 240 min): 0.73 ± 0.13 % Dose/organ | Liver uptake ([4]; 240 min): 4.57 ± 0.69 % Dose/organ | Lung uptake ([4]; 240 min): 0.54 ± 0.09 % Dose/organ | Muscle uptake (muscle assumed 40% of body weight) ([4]; 240 min): 11.24 ± 2.57 % Dose/organ | Skin uptake ([4]; 240 min): 4.21 ± 0.25 % Dose/organ | Spleen uptake ([4]; 240 min): 0.18 ± 0.02 % Dose/organ | Thyroid uptake ([4]; 240 min): 0.15 ± 0.18 % Dose/organ | Blood uptake (blood assumed 7% of body weight) ([4]; 6 hr, 2 rats only): 1.58 ± 0.15 % Dose/organ | Brain uptake ([4]; 6 hr, 2 rats only): 0.05 ± 0.001 % Dose/organ | Heart uptake ([4]; 6 hr, 2 rats only): 0.11 ± 0.01 % Dose/organ | Kidney uptake ([4]; 6 hr, 2 rats only): 0.45 ± 0.03 % Dose/organ | Liver uptake ([4]; 6 hr, 2 rats only): 3.21 ± 0.28 % Dose/organ | Lung uptake ([4]; 6 hr, 2 rats only): 0.36 % Dose/organ | Muscle uptake (muscle assumed 40% of body weight) ([4]; 6 hr, 2 rats only): 6.94 ± 0.93 % Dose/organ | Skin uptake ([4]; 6 hr, 2 rats only): 4.15 ± 0.63 % Dose/organ | Spleen uptake ([4]; 6 hr, 2 rats only): 0.11 ± 0.004 % Dose/organ | Thyroid uptake ([4]; 6 hr, 2 rats only): 0.42 ± 0.15 % Dose/organ | Blood uptake (blood assumed 7% of body weight) ([4]; 16 hr): 0.42 ± 0.07 % Dose/organ | Brain uptake ([4]; 16 hr): 0.008 ± 0.001 % Dose/organ | Heart uptake ([4]; 16 hr): 0.02 ± 0.003 % Dose/organ | Kidney uptake ([4]; 16 hr): 0.12 ± 0.015 % Dose/organ | Liver uptake ([4]; 16 hr): 1.32 ± 0.096 % Dose/organ | Lung uptake ([4]; 16 hr): 0.07 ± 0.006 % Dose/organ | Muscle uptake (muscle assumed 40% of body weight) ([4]; 16 hr): 1.49 ± 0.23 % Dose/organ | Skin uptake ([4]; 16 hr): 2.04 ± 0.18 % Dose/organ | Spleen uptake ([4]; 16 hr): 0.02 ± 0.002 % Dose/organ | Thyroid uptake ([4]; 16 hr): 0.009 ± 0.004 % Dose/organ | Regional distribution / selectivity in rat brain (in words) ([5]; listed as [^123 I]-2b): did not exhibit any selectivity | Regional distribution / selectivity in rat brain (in words) ([5]; listed as [^123 I]I-TBZ (2b)): exhibits no regional selectivity | Regional brain uptake, cerebellum ([5]; 60 min): 0.14 ± 0.04 % Dose/g | Regional brain uptake, cortex ([5]; 60 min): 0.14 ± 0.04 % Dose/g | Regional brain uptake, hippocampus ([5]; 60 min): 0.14 ± 0.02 % Dose/g | Regional brain uptake, striatum ([5]; 60 min): 0.15 ± 0.03 % Dose/g | Regional brain uptake, cerebellum ([5]; 120 min): 0.14 ± 0.003 % Dose/g | Regional brain uptake, cortex ([5]; 120 min): 0.15 ± 0.09 % Dose/g | Regional brain uptake, hippocampus ([5]; 120 min): 0.12 ± 0.04 % Dose/g | Regional brain uptake, striatum ([5]; 120 min): 0.12 ± 0.04 % Dose/g | tissue uptake at 2 min [5, 7]: 0.5 ± 0.13 %ID/g | tissue uptake at 0.5 h [5, 7]: 0.17 ± 0.03 %ID/g | tissue uptake at 4 h [5, 7]: 0.051 ± 0.014 %ID/g | tissue uptake at 6 h [5, 7]: 0.025 ± 0.0002 %ID/g | tissue uptake at 16 h [5, 7]: 0.0063 ± 0.001 %ID/g | tissue uptake at 2 min [5, 8]: 0.55 ± 0.24 %ID/g | tissue uptake at 0.5 h [5, 8]: 0.2 ± 0.02 %ID/g | tissue uptake at 4 h [5, 8]: 0.052 ± 0.021 %ID/g | tissue uptake at 6 h [5, 8]: 0.022 %ID/g | tissue uptake at 16 h [5, 8]: 0.0061 ± 0.0013 %ID/g | tissue uptake at 2 min [5, 9]: 0.58 ± 0.16 %ID/g | tissue uptake at 0.5 h [5, 9]: 0.21 ± 0.02 %ID/g | tissue uptake at 4 h [5, 9]: 0.048 ± 0.015 %ID/g | tissue uptake at 6 h [5, 9]: 0.028 ± 0.0064 %ID/g | tissue uptake at 16 h [5, 9]: 0.0051 ± 0.002 %ID/g | tissue uptake at 2 min [5, 10]: 0.54 ± 0.21 %ID/g | tissue uptake at 0.5 h [5, 10]: 0.21 ± 0.006 %ID/g | tissue uptake at 4 h [5, 10]: 0.056 ± 0.014 %ID/g | tissue uptake at 6 h [5, 10]: 0.024 ± 0.0029 %ID/g | tissue uptake at 16 h [5, 10]: 0.0062 ± 0.0026 %ID/g
SMILES: COc1cc2c(cc1OC)C1CC(O)(C=C[123I])C(CC(C)C)CN1CC2 (racemic) [Compound 2b]
Crossing of the intact blood brain barrier and localization in the brain (in words) [4]: can cross the intact blood brain barrier and localize in the brain

SMILES: COc1cc2c(cc1OC)C1CC(OC(C)=O)C(CC(C)C)CN1CC2 (stereo not shown) [acetyl derivative of dihydro-TBZ]
binding affinity for the transporter (in words) [6]: retain high affinity
